From the supplement of paper PMC5908809

How the values were obtained:
[1] = tested on: normal NK cells expanded with K562-aAPC; assay: percent inhibition of viability; higher = more inhibition; details: 72 h, IL-2 2.5 ng/mL
Procedure: (§1)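 Drug sensitivity and resistance testing on K562-aAPC-expanded normal NK cells: 5 concentrations (10-fold steps over a 10,000-fold range), 72 h at 37 °C, viability by CellTiter-Glo normalised to DMSO and benzethonium chloride controls; DSS from the fitted curve.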

[2] = tested on: DERL-7 (IL-2 2.5 ng/mL); assay: as above; details: 72 h
[3] = tested on: IMC-1 (IL-2 20 ng/mL); assay: as above; details: 72 h
[4] = tested on: KAI3 (IL-2 2.5 ng/mL); assay: as above; details: 72 h
[5] = tested on: KHYG-1 (IL-2 2.5 ng/mL); assay: as above; details: 72 h
[6] = tested on: NK-92 (IL-2 2.5 ng/mL); assay: as above; details: 72 h
[7] = tested on: NK-YS (IL-2 2.5 ng/mL); assay: as above; details: 72 h
[8] = tested on: NKL (IL-2 2.5 ng/mL); assay: as above; details: 72 h
[9] = tested on: SNK-6 (IL-2 2.5 ng/mL); assay: as above; details: 72 h
[10] = tested on: YT (IL-2 2.5 ng/mL); assay: as above; details: 72 h
[11] = tested on: normal primary NK cells, pool 1 (3 donors) (IL-2 2.5 ng/mL); assay: as above; details: 72 h
[12] = tested on: normal primary NK cells, pool 1 (3 donors), resting (IL-2 0 ng/mL); assay: as above; details: 72 h
[13] = tested on: normal primary NK cells, pool 2 (3 donors) (IL-2 2.5 ng/mL); assay: as above; details: 72 h
[14] = tested on: normal primary NK cells, pool 3 (3 donors) (IL-2 2.5 ng/mL); assay: as above; details: 72 h
[15] = tested on: normal NK cells expanded with K562-aAPC; assay: drug sensitivity score (DSS) (DSS units); higher = more sensitive; extreme values may be limits of the assay; details: 72 h; IL-2 2.5 ng/mL
Procedure: as §1

[16] = tested on: DERL-7 (IL-2 2.5 ng/mL); assay: as above; details: 72 h
[17] = tested on: IMC-1 (IL-2 20 ng/mL); assay: as above; details: 72 h
[18] = tested on: KAI3 (IL-2 2.5 ng/mL); assay: as above; details: 72 h
[19] = tested on: KHYG-1 (IL-2 2.5 ng/mL); assay: as above; details: 72 h
[20] = tested on: NK-92 (IL-2 2.5 ng/mL); assay: as above; details: 72 h
[21] = tested on: NK-YS (IL-2 2.5 ng/mL); assay: as above; details: 72 h
[22] = tested on: NKL (IL-2 2.5 ng/mL); assay: as above; details: 72 h
[23] = tested on: SNK-6 (IL-2 2.5 ng/mL); assay: as above; details: 72 h
[24] = tested on: YT (IL-2 2.5 ng/mL); assay: as above; details: 72 h
[25] = tested on: normal primary NK cells, pool 1 (3 donors) (IL-2 2.5 ng/mL); assay: as above; details: 72 h
[26] = tested on: normal primary NK cells, pool 1 (3 donors), resting (IL-2 0 ng/mL); assay: as above; details: 72 h
[27] = tested on: normal primary NK cells, pool 2 (3 donors) (IL-2 2.5 ng/mL); assay: as above; details: 72 h
[28] = tested on: normal primary NK cells, pool 3 (3 donors) (IL-2 2.5 ng/mL); assay: as above; details: 72 h

CN(C[C@@H]1COCCO1)S(=O)(=O)Nc1ccc2ccc3ncc(-c4cnn(C)c4)cc3c(=O)c2c1 [MK-2461] (max concentration tested 10000 nM)
percent inhibition of viability [%]
Details	1 nM	10 nM	100 nM	1000 nM	10000 nM
[1]	2.16	-3.15	-5.97	-1.83	29.5
[2]	-6.68	-3.14	-6.19	10.2	52.8
[3]	1.71	-0.63	3.27	-5.3	-50.1
[4]	-1.76	-2.96	7.38	21.6	44.7
[5]	-0.18	-3.51	-0.87	6.75	44.4
[6]	1.01	-5.16	-10.7	7.81	9.19
[7]	0.46	-3.34	-0.08	3.95	33.3
[8]	-3.44	-1.59	-12	8.79	30
[9]	0.33	-7.16	-3.05	-24.8	19.4
[10]	-0.04	-0.58	-1.61	0.19	10.3
[11]	-3.44	-9.95	-8.02	-7.44	21.8
[12]	-17.8	-18.1	-32.3	-29.1	26.9
[13]	-7.85	-3.63	-2.59	-2.71	16.6
[14]	-12.9	-6.11	-6.1	-12.5	-1.21

Details	drug sensitivity score
[15]	1.13
[16]	4.49
[17]	0
[18]	4.68
[19]	3.41
[20]	0
[21]	2.18
[22]	2.56
[23]	0.21
[24]	0
[25]	0.46
[26]	0.54
[27]	0.24
[28]	0

C/C(=C\c1csc(C)n1)[C@@H]1C[C@@H]2O[C@]2(C)CCC[C@H](C)[C@H](O)[C@@H](C)C(=O)C(C)(C)[C@@H](O)CC(=O)O1 [Patupilone] (max concentration tested 1000 nM)
percent inhibition of viability [%]
Details	0.1 nM	1 nM	10 nM	100 nM	1000 nM
[1]	-5.25	-3.64	53.5	57.1	55.8
[2]	-4.98	5.91	98.8	99.6	99.2
[3]	-0.59	0.29	97	99.9	99.2
[4]	-13.1	-4.34	44.2	60.6	50.5
[5]	-3.34	-8.41	25.7	104	102
[6]	-21.3	-3.29	72.4	99.8	97.7
[7]	-3.81	-3.75	28.9	71.3	69.9
[8]	-9.24	-10.5	34.6	93.9	90.3
[9]	5.42	5.23	75.5	72.6	69.5
[10]	-3.08	-3.77	59.4	97.9	96.7
[11]	-9.75	-4.17	10.3	5.4	6.51
[12]	-18.5	-28.5	6.09	7.49	15.2
[13]	2.42	-5.69	2.84	6.87	6.04
[14]	-13	-7.53	0.9	3.45	6.6

Details	drug sensitivity score
[15]	17.1
[16]	31.1
[17]	30.1
[18]	16.4
[19]	21.9
[20]	26.2
[21]	17
[22]	21.7
[23]	24.3
[24]	24.7
[25]	0.14
[26]	0.55
[27]	0
[28]	0

Cc1cc(Nc2cc(N3CCN(C)CC3)nc(Sc3ccc(NC(=O)C4CC4)cc3)n2)n[nH]1 [Tozasertib] (max concentration tested 10000 nM)
percent inhibition of viability [%]
Details	1 nM	10 nM	100 nM	1000 nM	10000 nM
[1]	-7.6	-9.83	27.1	35.3	38.2
[2]	3.54	-3.04	72.5	62	82
[3]	-4.29	1.42	24	78	98
[4]	-4.42	3.12	20.6	48.2	71.8
[5]	-4.48	2.48	32.5	67.5	85.3
[6]	-7.92	-11.5	9.53	52.9	83.8
[7]	-6.33	0.35	56.9	67.3	60.3
[8]	-9.16	-8.33	-3.2	4.79	34.7
[9]	-3.9	3.63	58.1	74.3	61.7
[10]	-3.46	-2.16	13.1	25.8	47.4
[11]	-7.78	-12.4	-6.71	5.08	43.4
[12]	2.84	-2.46	-18	-4.6	15.2
[13]	-9.84	-5.4	-5.23	-0.34	41.1
[14]	-7.32	-4.94	0.04	-0.07	19.2

Details	drug sensitivity score
[15]	9.96
[16]	23.6
[17]	17.4
[18]	11.6
[19]	16.6
[20]	11.4
[21]	19.2
[22]	2.42
[23]	20.9
[24]	5.97
[25]	3.05
[26]	0.14
[27]	2.02
[28]	0.53

COc1cc2ncnc(Nc3ccc(F)c(Cl)c3)c2cc1NC(=O)/C=C/CN1CCCCC1 [Dacomitinib] (max concentration tested 1000 nM)
percent inhibition of viability [%]
Details	0.1 nM	1 nM	10 nM	100 nM	1000 nM
[1]	4.92	5.66	5.66	10.2	29.5
[2]	-5.58	-2.85	-0.73	-3.8	35.9
[3]	9.55	7.6	11.6	10.1	13.4
[4]	7.94	10.2	11.4	7.46	31.4
[5]	10.5	10.2	7.74	5.43	16.9
[6]	14.8	4.75	15.7	-7.18	27.1
[7]	7.35	1.97	10.7	6.81	23.5
[8]	3.41	22.9	21.4	24.5	43.9
[9]	6.36	-3.37	6.76	1.63	22.4
[10]	5.15	4.77	7.83	2.51	14.2
[11]	2.94	-9.71	-7.32	-13.9	28.8
[12]	4.51	-7.96	0.41	-14.9	59.7
[13]	-2.98	-1.98	1.99	-4.15	33
[14]	0.64	1.31	-1.6	-10.6	17.6

Details	drug sensitivity score
[15]	2.02
[16]	1.45
[17]	0.74
[18]	2.88
[19]	0
[20]	0.79
[21]	1.38
[22]	8.95
[23]	0.98
[24]	0
[25]	0.77
[26]	2.49
[27]	1.25
[28]	0.2

CN(C)Cc1ccc(S(=O)(=O)n2ccc(/C=C/C(=O)NO)c2)cc1 [Resminostat] (max concentration tested 10000 nM)
percent inhibition of viability [%]
Details	1 nM	10 nM	100 nM	1000 nM	10000 nM
[1]	-4.58	-2.4	-0.88	36.9	101
[2]	2.49	1.77	-10	47.9	101
[3]	-6.01	-4.89	-2.77	-7.01	101
[4]	1.92	3.59	28.4	71.5	104
[5]	-5.72	-0.43	1.19	68.5	106
[6]	-4.22	-5.89	2.76	72.4	104
[7]	-6.67	-3.77	2.32	34.2	103
[8]	10.2	0.52	26.1	80.8	106
[9]	11.1	1.11	5.35	56.6	101
[10]	-1.93	-2.18	2.96	27.7	105
[11]	2.24	11.9	12.7	57.5	98.9
[12]	-6.63	11.2	20.3	73.7	89.4
[13]	-6.44	4.91	8.82	42	97.4
[14]	-1.68	4.21	3.8	20.1	98.5

Details	drug sensitivity score
[15]	10.6
[16]	11.5
[17]	5.11
[18]	17.1
[19]	13.4
[20]	14.1
[21]	10.3
[22]	18.2
[23]	12.3
[24]	9.67
[25]	13
[26]	16.1
[27]	10.2
[28]	8.68
